Source: patent US11179412B2, “Methods of treating conditions involving elevated inflammatory response” (University of Pittsburgh—Of the Commonwealth System of …, priority 2017, dated 2021)
Where a name gives a salt, the structure may show the parent alone.

System: STING activation (IFNβ release) in iBMDMs
Test: IFNβ release ELISA after STING ligand (or LPS) stimulation, iBMDMs
Type: cell-based, mouse
Source text: Commercially available enzyme-linked immunosorbent assay (ELISA) kits were used to measure the concentrations of mouse IFNβ (Thermo Fisher Scientific) or human IFNβ (Thermo Fisher Scientific) in culture medium according to the manufacturer's instructions. […]

[1] = iBMDMs, 3′3′-cGAMP 10 μg/ml, 16 hours, compound 10 μM

CO[C@H]1C[C@@H]2CC[C@@H](C)[C@@](O)(O2)C(=O)C(=O)N2CCCC[C@H]2C(=O)O[C@H]([C@H](C)C[C@@H]2CC[C@@H](OCCO)[C@H](OC)C2)CC(=O)[C@H](C)/C=C(\C)[C@@H](O)[C@@H](OC)C(=O)[C@H](C)C[C@H](C)/C=C/C=C/C=C/1C [Everolimus (RAD001), Everolimus]
fold increase in IFN-β release [1]: 1.01 fold

C=C1C[C@@H]2[C@H](CC[C@]3(C)C(=O)CC[C@@H]23)[C@@]2(C)C=CC(=O)C=C12 [Exemestane]
fold increase in IFN-β release (16 h, 10 µM): 1.11 fold

Cc1nc(C(=O)NCC(=O)O)c(O)c2ccc(Oc3ccccc3)cc12 [FG-4592]
fold increase in IFN-β release [1]: 0.73 fold

CC1=C(C(=O)OC2CCCCC2)C(c2ccc([N+](=O)[O-])cc2)C2=C(CC(C)(C)CC2=O)N1 (stereo not drawn) [FLI-06]
fold increase in IFN-β release [1]: 2.06 fold

CCOC(=O)C1=C(C)NC(C)=C(C(=O)OC)C1c1cccc(Cl)c1Cl (stereo not drawn) [Felodipine]
fold increase in IFN-β release [1]: 0.69 fold

CCOC(=O)c1ccc(NC2CCCCC2)c(N)c1 [Ferrostatin-1 (Fer-1), Ferrostatin-1]
fold increase in IFN-β release [1]: 2.54 fold

O=C(Nc1nc2cccc(-c3ccc(CN4CCS(=O)(=O)CC4)cc3)n2n1)C1CC1 [Filgotinib (GLPG0634), Filgotinib]
fold increase in IFN-β release [1]: 2.35 fold

CC(C)(C)NC(=O)[C@H]1CC[C@H]2[C@@H]3CC[C@H]4NC(=O)C=C[C@]4(C)[C@H]3CC[C@]12C [Finasteride]
fold increase in IFN-β release [1]: 0.85 fold

CCCCCCCCc1ccc(CCC(N)(CO)CO)cc1 [Fingolimod (FTY720) HCl, Fingolimod]
fold increase in IFN-β release (16 h, 10 µM): 0.77 fold

CC(C)n1c(/C=C/C(O)CC(O)CC(=O)O)c(-c2ccc(F)cc2)c2ccccc21 (stereo not drawn) [Fluvastatin Sodium]
fold increase in IFN-β release [1]: 0.32 fold

COCCCC/C(=N\OCCN)c1ccc(C(F)(F)F)cc1 [Fluvoxamine maleate]
fold increase in IFN-β release [1]: 1.80 fold

COc1ccc(C[C@@H](C)NC[C@H](O)c2ccc(O)c(NC=O)c2)cc1.COc1ccc(C[C@@H](C)NC[C@H](O)c2ccc(O)c(NC=O)c2)cc1.O=C(O)/C=C/C(=O)O [Formoterol Hemifumarate]
fold increase in IFN-β release [1]: 1.76 fold

C=C[C@@]1(C)CC(=O)[C@]2(O)[C@@]3(C)[C@@H](O)CCC(C)(C)[C@@H]3[C@H](O)[C@H](OC(C)=O)[C@@]2(C)O1 [Forskolin]
fold increase in IFN-β release [1]: 0.81 fold

COc1cc(Nc2ncc(F)c(Nc3ccc4c(n3)N(COP(=O)(O)O)C(=O)C(C)(C)O4)n2)cc(OC)c1OC [Fostamatinib (R788), Fostamatinib]
fold increase in IFN-β release [1]: 0.69 fold

C[C@]12CC[C@@H]3c4ccc(O)cc4C[C@@H](CCCCCCCCC[S+]([O-])CCCC(F)(F)C(F)(F)F)[C@H]3[C@@H]1CC[C@@H]2O (stereo partly drawn) [Fulvestrant]
fold increase in IFN-β release [1]: 0.52 fold

CN[C@@H](C)C(=O)N[C@H](C(=O)N1CCC[C@H]1C(=O)Nc1snnc1-c1ccccc1)C1CCCCC1 [GDC-0152]
fold increase in IFN-β release [1]: 1.79 fold

CS(=O)(=O)N1CCN(Cc2cc3nc(-c4cccc5[nH]ncc45)nc(N4CCOCC4)c3s2)CC1 [GDC-0941]
fold increase in IFN-β release [1]: 2.13 fold

CNc1nc(Nc2cn(C(C)(C)C#N)nc2C)ncc1C(F)(F)F [GNE-0877]
fold increase in IFN-β release [1]: 1.32 fold

CCNc1nc(Nc2cc(F)c(C(=O)N3CCOCC3)cc2OC)ncc1C(F)(F)F [GNE-7915]
fold increase in IFN-β release [1]: 2.41 fold

CNc1nc(Nc2cnn([C@H]3CCN(C4COC4)C[C@@H]3F)c2Cl)ncc1C(F)(F)F [GNE-9605]
fold increase in IFN-β release [1]: 1.10 fold

NC(=O)c1cccc(-c2cc(Nc3ccc(OC(F)(F)F)cc3)ncn2)c1 [GNF-2]
fold increase in IFN-β release [1]: 0.56 fold

O=C(NCCO)c1cccc(-c2cc(Nc3ccc(OC(F)(F)F)cc3)ncn2)c1 [GNF-5]
fold increase in IFN-β release [1]: 2.94 fold

CC1=C(C(=O)Nc2cc3cn[nH]c3cc2F)C(c2ccc(C(F)(F)F)cc2)CC(=O)N1 (stereo not drawn) [GSK429286A]
fold increase in IFN-β release [1]: 2.79 fold

C[C@@H](Oc1cc(-n2cnc3ccc(CN4CCN(C)CC4)cc32)sc1C(N)=O)c1ccccc1C(F)(F)F [GSK461364]
fold increase in IFN-β release [1]: 0.21 fold

CCn1c(-c2nonc2N)nc2c(C#CC(C)(C)O)ncc(OC[C@H]3CCCNC3)c21 [GSK690693]
fold increase in IFN-β release [1]: 1.12 fold

CC(C)c1noc(N2CCC(COc3ccc(-c4ccc(S(C)(=O)=O)cc4)nc3)CC2)n1 [GSK1292263]
fold increase in IFN-β release [1]: 2.58 fold

CCc1cc(Nc2nccc(-c3c(-c4ccc(OC)c(C(=O)Nc5c(F)cccc5F)c4)nc4ccccn34)n2)c(OC)cc1N1CCC(N2CCN(S(C)(=O)=O)CC2)CC1 [GSK1904529A]
fold increase in IFN-β release [1]: 1.05 fold

Cn1cc(-c2ccc3c(c2)CCN3C(=O)Cc2cccc(C(F)(F)F)c2)c2c(N)ncnc21 [GSK2606414]
fold increase in IFN-β release [1]: 1.40 fold

Cc1cccc(CC(=O)N2CCc3c2ccc(-c2cn(C)c4ncnc(N)c24)c3F)n1 [GSK2656157]
fold increase in IFN-β release [1]: 1.58 fold

CCOC(=O)CCNc1cc(N2CCc3ccccc3CC2)nc(-c2ccccn2)n1.Cl [GSK J4 HCl]
fold increase in IFN-β release [1]: 0.40 fold

Cc1cc(SCc2sc(-c3ccc(C(F)(F)F)c(F)c3)nc2C)ccc1OCC(=O)O [GW0742]
fold increase in IFN-β release [1]: 0.13 fold

COc1ccc(COc2ccc(Cc3cnc(N)nc3N)cc2OC)cc1 [GW2580]
fold increase in IFN-β release [1]: 1.21 fold

Cl.O=C(O)Cc1cccc(OCCCN(Cc2cccc(C(F)(F)F)c2Cl)CC(c2ccccc2)c2ccccc2)c1 [GW3965 HCl]
fold increase in IFN-β release [1]: 0.74 fold

CC(C)c1onc(-c2c(Cl)cccc2Cl)c1COc1ccc(/C=C/c2cccc(C(=O)O)c2)c(Cl)c1 [GW4064]
fold increase in IFN-β release [1]: 1.26 fold

O=C(O)CCc1ccc(NCc2cccc(Oc3ccccc3)c2)cc1 [GW9508]
fold increase in IFN-β release [1]: 0.80 fold

O=C(Nc1ccccc1)c1cc([N+](=O)[O-])ccc1Cl [GW9662]
fold increase in IFN-β release [1]: 2.50 fold

CC(C)c1cc(-c2n[nH]c(=O)n2-c2ccc3c(ccn3C)c2)c(O)cc1O [Ganetespib (STA-9090), Ganetespib]
fold increase in IFN-β release [1]: 1.80 fold

C[C@@H]1C(=O)O[C@H]2C[C@@]34[C@H]5C[C@@H](C(C)(C)C)[C@]36[C@@H](OC(=O)[C@@H]6O)O[C@@]4(C(=O)O5)[C@]21O [Ginkgolide A]
fold increase in IFN-β release [1]: 2.14 fold

CC1C(=O)OC2C(O)C34C5CC(C(C)(C)C)C36C(OC(=O)C6O)OC4(C(=O)O5)C12O (stereo not drawn) [Ginkgolide B]
fold increase in IFN-β release [1]: 1.44 fold

Cc1ccc(S(=O)(=O)NC(=O)NN2CC3CCCC3C2)cc1 (stereo not drawn) [Gliclazide]
fold increase in IFN-β release [1]: 1.93 fold

COc1ccc2c(c1)C(=O)N(CCc1ccc(S(=O)(=O)NC(=O)NC3CCCCC3)cc1)C(=O)C2(C)C [Gliquidone]
fold increase in IFN-β release [1]: 1.20 fold

COc1ccc2c(c1)c(C1=C(c3c[nH]c4ccccc34)C(=O)NC1=O)cn2CCCN(C)C [Go 6983]
fold increase in IFN-β release [1]: 0.26 fold

Fc1cc(F)c2c(c1)C1C=CCC1C(c1cccnc1)N2 (stereo not drawn) [Golgicide A]
fold increase in IFN-β release [1]: 4.19 fold

Cl.Cl.O=S(=O)(NCCNC/C=C/c1ccc(Br)cc1)c1cccc2cnccc12 [H 89 2HCl]
fold increase in IFN-β release [1]: 1.91 fold

CCOC(=O)C1=C(N)Oc2ccc(Br)cc2C1C(C#N)C(=O)OCC (stereo not drawn) [HA14-1]
fold increase in IFN-β release [1]: 0.45 fold

CC(C)c1ccc(NC(=O)Cn2cnc3c2c(=O)n(C)c(=O)n3C)cc1 [HC-030031]
fold increase in IFN-β release [1]: 1.05 fold

Cc1cc(C)c(S(=O)(=O)n2cc(C)cc2C)c(C)c1 [HJC0350]
fold increase in IFN-β release [1]: 1.05 fold

COc1cc2c(cc1-c1c(C)noc1C)ncc1[nH]c(=O)n([C@H](C)c3ccccn3)c12 [I-BET151 (GSK1210151A)]
fold increase in IFN-β release [1]: 0.40 fold

O=C1[C@H](Cc2ccc(O)cc2)N2C(=O)CCN(C(=O)NCc3ccccc3)[C@H]2CN1Cc1cccc2ccccc12 [ICG-001]
fold increase in IFN-β release [1]: 0.10 fold

O=C(c1ccc(Nc2nccc(-c3cc4ccccc4s3)n2)cc1)N1CCC(N2CCCC2)CC1 [IKK-16 (IKK Inhibitor VII)]
fold increase in IFN-β release [1]: 1.16 fold

O=C(Nc1cc(C(F)(F)F)cc(C(F)(F)F)c1)c1cc(Cl)ccc1O [IMD 0354]
fold increase in IFN-β release [1]: 0.86 fold

O=C(O)CNC(=O)c1c(O)c2ccccc2n(Cc2ccccc2)c1=O [IOX2]
fold increase in IFN-β release [1]: 0.44 fold

Oc1ccc2ccccc2c1SSc1c(O)ccc2ccccc12 [IPA-3]
fold increase in IFN-β release [1]: 0.35 fold

Cc1ccc2nc(NC(=O)CSc3nc4c(c(=O)n3-c3ccccc3)SCC4)sc2c1 [IWP-2]
fold increase in IFN-β release [1]: 3.84 fold

C=CC(=O)N1CCC[C@@H](n2nc(-c3ccc(Oc4ccccc4)cc3)c3c(N)ncnc32)C1 [Ibrutinib (PCI-32765), Ibrutinib]
fold increase in IFN-β release [1]: 0.53 fold

C#Cc1cccc(Nc2ncnc3cc4c(cc23)OCCOCCOCCO4)c1 [Icotinib]
fold increase in IFN-β release [1]: 0.57 fold

CNC(=O)[C@H](Cc1c[nH]c2ccccc12)NC(=O)[C@@H](CC(=O)NO)CC(C)C [Ilomastat (GM6001, Galardin), Ilomastat]
fold increase in IFN-β release [1]: 1.81 fold

Cc1ccc(NC(=O)c2ccc(CN3CCN(C)CC3)cc2)cc1Nc1nccc(-c2cccnc2)n1 [Imatinib (STI571), Imatinib]
fold increase in IFN-β release [1]: 1.04 fold

CCOC(=O)[C@H](CCc1ccccc1)N[C@@H](C)C(=O)N1C(=O)N(C)C[C@H]1C(=O)O [Imidapril HCl]
fold increase in IFN-β release [1]: 3.20 fold

NC(=O)c1ccc(I)c([N+](=O)[O-])c1 [Iniparib (BSI-201), Iniparib]
fold increase in IFN-β release [1]: 0.23 fold

CCc1c2c(nc3ccc(OC(=O)N4CCC(N5CCCCC5)CC4)cc13)-c1cc3c(c(=O)n1C2)COC(=O)[C@]3(O)CC [Irinotecan HCl Trihydrate]
fold increase in IFN-β release (iBMDMs, 3′3′-cGAMP 10 μg/ml, 16 hours, compound 10 μM, HCl Trihydrate): 0.51 fold

CCc1c2c(nc3ccc(OC(=O)N4CCC(N5CCCCC5)CC4)cc13)-c1cc3c(c(=O)n1C2)COC(=O)[C@]3(O)CC [Irinotecan]
fold increase in IFN-β release [1]: 1.13 fold

CC1=C(/C=C/C(C)=C/C=C/C(C)=C\C(=O)O)C(C)(C)CCC1 [Isotretinoin]
fold increase in IFN-β release [1]: 0.10 fold
